# Results: patent US10023565B2, “N,N′ substituted piperidinamine compounds, and preparation method and usage thereof” (Institute of Pharmacology and Toxicology Academy of …, priority 2013, dated 2018)
# Assays:
# Experiment in all cases: Antitumor bioactivity evaluation, breast cancer cells (ATPlite)
# SK/Lap^R1.0 = type: cell-based; settings: Homo sapiens; test sample 5 μM, 72 hours; read-out: Inhibitory Rate % SKLap^R1.0
# Method: (§1) Antitumor bioactivity evaluation of the compounds of Examples according to the method described below
# (§2) Cells plating: a 100 mm culture dish with overgrown adherent cells was digested with 1 ml 0.25% trypsin (GIBCO) at 37° C. for 5 min, and the reaction was terminated with 2 ml culture medium (containing 10% FBS, GIBCO). The cells were scattered and collected, after counting, diluted to 1×10^5 cells/ml, and seeded into a 96-well plate at 50 μl/well, 5000 cells/well, excluding the peripheral circle of wells in which no cell was added, but PBS was added, 60 wells in total, and then incubated at 37° C. for 24 hours for adhering.
# (§3) Addition of the compound and lapatinib: the test sample was diluted to a final concentration of 5 μM, and the culture medium with the corresponding compound solvent concentration was filled in the control well, the compound solvent concentration was kept consistent in each well, 5 parellel wells were set for each concentration, 25 μl each well, 25 μl culture medium (in combined group, 25 μl lapatinib was added till a final concentration of 1 μM) supplemented, followed by incubation at 37° C. for 72 hours.
# (§4) Test after incubation at 37° C. for 72 hours: 50 μL of ATPlite kit substrate solution was added in each well, and vibrated for 3 min, followed by placing aside in darkness for 10 min, and then supernatant 100 μl/well was taken and placed on aluminescence test plate; the luminescence test plate that has been fully incubated was placed in a luminescence test instrument, to read luminescence value.
# (§5) 1. Cell survival rate (%)=Experimental group RLU/control group RLU×100%. The experimental data were subjected to data analysis and processing by utilizing GraphPad software.
# MDA-MB-361 = type: cell-based; settings: Homo sapiens, test sample 5 μM, 72 hours, read-out: Inhibitory Rate % MDA-MB-361
# Method: as §1, §2, §3, §4, §5
# BT474 = type: cell-based; settings: Homo sapiens, BT-474; test sample 5 μM, 72 hours; read-out: Inhibitory Rate % BT474
# Method: as §1, §2, §3, §4, §5
# MDA-MB-453 = type: cell-based; settings: Homo sapiens, test sample 5 μM, 72 hours, read-out: Inhibitory Rate % MDA-MB-453
# Method: as §1, §2, §3, §4, §5
# SK-BR3 = type: cell-based; settings: Homo sapiens, SK-BR-3; test sample 5 μM, 72 hours; read-out: Inhibitory Rate % SK-BR3
# Method: as §1, §2, §3, §4, §5
# BT/Lap^R1.0 = type: cell-based, human; settings: Homo sapiens; test sample 5 μM, 72 hours; read-out: Inhibitory Rate % BT/Lap^R1.0
# Method: as §1, §2, §3, §4, §5
Compound,inhibition at 5 µM (SK/Lap^R1.0) [%],inhibition at 5 µM (MDA-MB-361) [%],inhibition at 5 µM (BT474) [%],inhibition at 5 µM (MDA-MB-453) [%],inhibition at 5 µM (SK-BR3) [%],inhibition at 5 µM (BT/Lap^R1.0) [%]
"COc1cc(N2CCC(N(C)Cc3ccc(Cl)c(Cl)c3)CC2)ncn1 [Example 61, N-methyl-N-(3,4-dichlorobenzyl)-N-[1-(6-methoxypyrimidin-4-yl)piperidin-4-yl]amine]",28,6.5,9.8,12.7,16.1,9.2
"COc1nccc(N2CCC(N(C)Cc3ccccc3C#N)CC2)n1 [Example 50, N-methyl-N-(2-cyanobenzyl)-N-[1-(2-methoxypyrimidin-4-yl)piperidin-4-yl]amine]",11.7,22,27.5,50.6,24.7,22.7
"CCOc1ncc(CN2CCC(N(C)Cc3ccccc3C#N)CC2)s1 [Example 2, N-methyl-N-o-cyanobenzyl-N-{1-[(2-ethoxythiazol-5-yl)methyl]piperidin-4-yl}amine]",7.2,12.3,17.6,43.8,13.6,19.4
"Cc1ccc(CN(C)C2CCN(Cc3cnc(Cl)s3)CC2)cc1 [Example 22, N-methyl-N-(4-methylbenzyl)-N-{[1-(2-chlorothiazol-5-yl)methyl]piperidin-4-yl}amine]",8.4,10.9,14.2,29.6,26.2,16
"CCOc1ncc(CN2CCC(N(C)Cc3cccc(Cl)c3)CC2)s1 [Example 1, N-methyl-N-m-chlorobenzyl-N-{1-[(2-ethoxythiazol-5-yl)methyl]piperidin-4-yl}amine]",5.2,14.2,14.4,41.2,16.7,12.5
"CCOc1ncc(CN2CCC(N(C)Cc3c(F)cccc3Cl)CC2)s1 [Example 5, N-methyl-N-(2-fluoro-6-chlorobenzyl)-N-{1-[(2-ethoxythiazol-5-yl)methyl]piperidin-4-yl} amine]",11.7,32.8,54.4,67.4,40.9,50.5
"CS(=O)(=O)CCNCc1ccc(-c2ccc3ncnc(Nc4ccc(OCc5cccc(F)c5)c(Cl)c4)c3c2)o1 [lapatinib, reference compound]",10.4,40.2,75.6,42.6,79,18
"COc1nccc(N2CCC(N(C)Cc3ccc(C#N)cc3)CC2)n1 [Example 48, N-methyl-N-(4-cyanobenzyl)-N-[1-(2-methoxypyrimidin-4-yl)piperidin-4-yl]amine]",74.3,53.3,71.6,79.5,86.5,72.7
"CCOc1ncc(CN2CCC(N(C)Cc3cc(Cl)ccc3Cl)CC2)s1 [Example 10, N-methyl-N-(2,5-dichlorobenzyl)-N-{[1-(2-ethoxythiazol-5-yl)methyl]piperidin-4-yl}amine]",5.2,25.3,5.6,23.9,9.4,9.6
"CSc1nccc(N2CCC(N(C)Cc3cccc(F)c3)CC2)n1 [Example 45, N-methyl-N-(3-fluorobenzyl)-N-[1-(2-methylthiopyrimidin-4-yl)piperidin-4-yl]amine]",34.2,36.2,21.3,45.3,22.2,17.5
"CSc1ncc(CN2CCC(N(C)Cc3ccc(C)cc3)CC2)s1 [Example 26, N-methyl-N-(4-methylbenzyl)-N-{[1-(2-methylthiothiazol-5-yl)methyl]piperidin-4-yl}amine]",12.1,38.3,68.3,67.1,49.6,66.7
"CCOc1ncc(CN2CCC(N(C)Cc3ccccc3Cl)CC2)s1 [Example 6, N-methyl-N-(2-chlorobenzyl)-N-{1-[(2-ethoxythiazol-5-yl)methyl]piperidin-4-yl}amine]",0.6,33.3,10.1,36.4,12.6,13.3
"CSc1ncc(CN2CCC(N(C)Cc3ccc(F)cc3)CC2)s1 [Example 29, N-methyl-N-(4-fluorobenzyl)-N-{1-[(2-methylthiothiazol-5-yl)methyl]piperidin-4-yl}amine]",11.7,32.8,54.4,67.4,40.9,50.5
"CN(Cc1ccc(Cl)cc1Cl)C1CCN(Cc2cnc(Cl)s2)CC1 [Example 20, N-methyl-N-(2,4-dichlorobenzyl)-N-{[1-(2-chlorothiazol-5-yl)methyl]piperidin-4-yl}amine]",11.4,30.1,64.1,60.8,47.1,61.8
"CSc1nccc(N2CCC(N(C)Cc3ccc(C)cc3)CC2)n1 [Example 42, N-methyl-N-(4-methylbenzyl)-N-[1-(2-methylthiopyrimidin-4-yl)piperidin-4-yl]amine]",35.8,45.1,36.7,60.8,41.4,28.6
"CSc1ncc(CN2CCC(N(C)Cc3cc(Cl)ccc3Cl)CC2)s1 [Example 34, N-methyl-N-(2,5-dichlorobenzyl)-N-{1-[(2-methylthiothiazol-5-yl)methyl]piperidin-4-yl}amine]",11.4,25.4,42.3,59.4,23.3,34.4
"CCOc1ncc(CN2CCC(N(C)Cc3c(Cl)cccc3Cl)CC2)s1 [Example 9, N-methyl-N-(2,6-dichlorobenzyl)-N-{[1-(2-ethoxythiazol-5-yl)methyl]piperidin-4-yl}amine]",5.1,24.5,38.2,51.5,17.9,25.6
"COc1cc(N2CCC(N(C)Cc3cccc(Cl)c3)CC2)ncn1 [Example 63, N-methyl-N-(3-chlorobenzyl)-N-[1-(6-methoxypyrimidin-4-yl)piperidin-4-yl]amine]",24.8,25.6,11.9,23.8,12.6,9.4
"CSc1nccc(N2CCC(N(C)Cc3cc(Cl)ccc3Cl)CC2)n1 [Example 44, N-methyl-N-(2,5-dichlorobenzyl)-N-[1-(2-methylthiopyrimidin-4-yl)piperidin-4-yl]amine]",35.2,50.4,67.1,66.2,32.6,63.9
"CN(Cc1c(F)cccc1Cl)C1CCN(Cc2cnc(Cl)s2)CC1 [Example 19, N-methyl-N-(2-fluoro-6-chlorobenzyl)-N-{[1-(2-chlorothiazol-5-yl)methyl]piperidin-4-yl}amine]",1.5,10.4,10.6,22.4,9.8,3.2
"COc1cc(N2CCC(N(C)Cc3ccccc3C#N)CC2)ncn1 [Example 65, N-methyl-N-(2-cyanobenzyl)-N-[1-(6-methoxypyrimidin-4-yl)piperidin-4-yl]amine]",16.8,42.7,65.8,66.1,23.3,62.2
"CSc1ncc(CN2CCC(N(C)Cc3c(Cl)cccc3Cl)CC2)s1 [Example 32, N-methyl-N-(2,6-dichlorobenzyl)-N-{1-[(2-methylthiothiazol-5-yl)methyl]piperidin-4-yl}amine]",26.8,45.2,54.9,63.7,24.3,54.9
